# In patent US9598459B2, “Pharmaceutical compositions and methods” (priority 2015, dated 2017):
# Several values for one entry are separate records, joined by “and”; a condition that tells them apart may be missing. Identical values can stand only once. Like-named read-outs stand apart in the source and are kept apart here.
# Key:
# MNV MNV-1 = test: Murine norovirus (MNV-1) antiviral screen in RAW267.4; type: cell-based; settings: MNV-1, RAW267.4, Example 11; for EC50: unit from Conc. Range
# [1] = system: Norwalk virus (replicon) GT1; test: Norwalk virus replicon (GT1) in HG23, RNA hybridization; type: cell-based, Norwalk virus (human norovirus)
# RAW267.4 = test: Toxicity in RAW267.4 cells (neutral red); settings: Neutral Red (Toxicity), Example 11
# [2] = system: Hepatitis C virus (replicon) clone B (genotype 1a); test: HCV genotype 1a HuH-7 clone B subgenomic replicon RNA replication; type: cell-based, human hepatitis C virus; settings: 10 μM
# [3] = system: cellular ribosomal RNA (rRNA) synthesis; test: Cellular ribosomal RNA synthesis in HCV replicon cells (TaqMan RT-qPCR); type: cell-based; settings: 10 μM
# in vitro [4] = settings: human
# [5] = Toxicity in RAW267.4 cells (neutral red); settings: mouse, RAW267.4 cells, CC50, Neutral Red (Toxicity), Example 11
# Vero = settings: African green monkey
# in vitro [6] = settings: African green monkey, Cytotoxicity CC50
# PBMC = settings: human
# CCRF-CEM = test: Cytotoxicity on CCRF-CEM; settings: read-out: Cytotoxicity CC50, CCRF-CEM
# HIV-1 strain LAI = test: HIV-1 replication reverse transcriptase (RT) assay in PBMC; type: cell-based, human immunodeficiency virus type 1
# in vitro [7] = settings: human; remark: listed apart in the source
# HIV-1 LAV = test: Inhibition of inducible HIV-1 LAV replication in OM-10.1 (RT values); type: cell-based, human immunodeficiency virus type 1; settings: for RT Values: SAMPLE 1-3, MEAN
# OM-10.1 cells = test: Toxicity in OM-10.1 (Cell Titer 96); settings: for TOXICITY VALUES (Cell Titer 96): SAMPLE 1-3, MEAN
# [8] = Toxicity in OM-10.1 (Cell Titer 96); settings: human, OM-10.1 cells
# [9] = biological target: cytosolic progesterone receptors (PR) (Homo sapiens, UniProt P06401); settings: Peeters et al., 2008; cited from earlier work
# Chain of cytosolic progesterone receptors (PR) (P06401 whole entry): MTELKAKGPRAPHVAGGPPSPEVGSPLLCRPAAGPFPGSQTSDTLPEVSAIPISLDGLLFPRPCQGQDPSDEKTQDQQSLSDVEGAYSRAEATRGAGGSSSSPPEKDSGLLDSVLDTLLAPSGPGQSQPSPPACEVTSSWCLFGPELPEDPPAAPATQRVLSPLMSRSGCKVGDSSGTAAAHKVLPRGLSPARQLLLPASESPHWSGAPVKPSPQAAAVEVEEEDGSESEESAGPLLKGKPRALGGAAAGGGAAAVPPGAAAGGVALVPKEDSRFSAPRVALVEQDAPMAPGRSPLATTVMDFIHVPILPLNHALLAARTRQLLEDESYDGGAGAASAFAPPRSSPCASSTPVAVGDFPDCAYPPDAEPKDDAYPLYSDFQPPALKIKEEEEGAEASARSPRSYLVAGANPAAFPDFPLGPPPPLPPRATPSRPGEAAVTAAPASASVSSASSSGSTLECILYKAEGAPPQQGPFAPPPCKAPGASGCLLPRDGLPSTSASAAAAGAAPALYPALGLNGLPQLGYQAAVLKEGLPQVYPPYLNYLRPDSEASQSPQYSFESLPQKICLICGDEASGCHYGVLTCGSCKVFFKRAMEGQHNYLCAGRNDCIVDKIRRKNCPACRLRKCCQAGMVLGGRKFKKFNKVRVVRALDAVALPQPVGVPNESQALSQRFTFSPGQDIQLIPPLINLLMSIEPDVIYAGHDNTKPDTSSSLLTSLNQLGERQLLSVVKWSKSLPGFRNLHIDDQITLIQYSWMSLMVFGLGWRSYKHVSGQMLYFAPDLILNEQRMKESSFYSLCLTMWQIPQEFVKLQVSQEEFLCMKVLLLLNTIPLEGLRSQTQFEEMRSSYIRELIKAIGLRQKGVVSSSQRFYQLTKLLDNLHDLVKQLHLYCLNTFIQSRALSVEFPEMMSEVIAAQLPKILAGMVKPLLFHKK
# [10] = rats, twice daily 1-2 mg kg−1 po; cited from earlier work
# cytosolic GRs = biological target: T1, cytosolic GRs (Homo sapiens, UniProt P04150); settings: Peeters et al., 2008; cited from earlier work
# T1 sequence (P04150 1-777): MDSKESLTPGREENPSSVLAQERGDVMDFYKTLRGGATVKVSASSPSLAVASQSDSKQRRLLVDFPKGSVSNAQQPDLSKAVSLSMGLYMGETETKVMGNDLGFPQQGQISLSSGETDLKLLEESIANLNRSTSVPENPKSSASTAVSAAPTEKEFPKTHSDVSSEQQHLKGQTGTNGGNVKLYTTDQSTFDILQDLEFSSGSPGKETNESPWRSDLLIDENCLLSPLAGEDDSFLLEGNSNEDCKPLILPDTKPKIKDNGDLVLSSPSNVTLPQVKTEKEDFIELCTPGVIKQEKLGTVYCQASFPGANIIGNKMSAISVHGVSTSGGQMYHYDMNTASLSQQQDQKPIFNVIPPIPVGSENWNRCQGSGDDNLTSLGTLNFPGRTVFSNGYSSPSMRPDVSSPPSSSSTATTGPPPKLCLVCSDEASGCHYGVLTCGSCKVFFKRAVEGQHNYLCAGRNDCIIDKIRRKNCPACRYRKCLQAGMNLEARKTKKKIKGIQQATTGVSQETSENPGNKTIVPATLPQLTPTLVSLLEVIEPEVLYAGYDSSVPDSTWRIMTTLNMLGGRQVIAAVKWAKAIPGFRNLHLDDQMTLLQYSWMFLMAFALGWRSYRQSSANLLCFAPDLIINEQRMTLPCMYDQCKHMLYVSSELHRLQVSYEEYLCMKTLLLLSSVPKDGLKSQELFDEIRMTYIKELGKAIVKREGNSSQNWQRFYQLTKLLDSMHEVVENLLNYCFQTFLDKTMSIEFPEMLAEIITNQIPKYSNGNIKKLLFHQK
# [11] = cited from earlier work
# in vitro [12] = settings: African green monkey
# [13] = system: Enterovirus 71 Tainan/4643/98; test: microbe, parasite or virus in culture; type: cell-based; settings: Enterovirus A, Vero 76
# Poliovirus type 3 WM-3 = test: microbe, parasite or virus in culture; type: cell-based; settings: Enterovirus C, Vero 76
# Vero 76 = settings: African green monkey
# [14] = RAW267.4, Neutral Red (Cytopathology)
# [15] = Norwalk virus, GT1, HG23, Norwalk virus (replicon) GT1, HG23, Table 10
# [16] = Human immunodeficiency virus 1, OM-10.1
structure (smiles),measurement,setting,value
"CC#CC1(O)CCC2C3CCC4=CC(=NNC(=S)Nc5ccccc5)CCC4=C3C(c3ccc4c(c3)OCO4)CC21C.CC#CC1(O)CCC2C3CCC4=CC(=O)CCC4=C3C(c3ccc4c(c3)OCO4)CC21C (mixture of isomers) [PT156, 1/17(11β,17β)-17-Hydroxy-11-[3,4-(methylenedioxy)phenyl]-17-(1-propyn-1-yl)estra-4,9-dien-3-one (ORG34517)×(2EZ)-2-{(11β,17β)-17-hydroxy-11-[3,4-(methylenedioxy)phenyl]-17-(1-propyn-1-yl)estra-4,9-dien-3-ylidene}-N-phenylhydrazinecarbothioamide [74.1% (E), 25.9% (Z)] 11/17hydrate]",EC90,MNV MNV-1; Neutral Red (Cytopathology),290 nM
same,EC50,MNV MNV-1; Neutral Red (Cytopathology),91 nM
same,CC50,HG23,> 100000 nM
same,EC90,"[1]; RNA Hybridization (Replicon), NV GT1, HG23, Example 10",> 100000 nM
same,EC50,"[1]; RNA Hybridization (Replicon), NV GT1, HG23, Example 10, unit from Conc. Range",> 100000 nM
same,CC50,RAW267.4,33000 nM
"C[C@@]1(O)[C@H](O)[C@@H](CO)O[C@H]1n1ccc(N)nc1=O [2′-C-methylcytidine (RS-446), 2′-C-methylcytidine, reference compound]",EC90,MNV MNV-1; [14],3100 nM
same,EC50,MNV MNV-1; [14],1000 nM
same,TaqMan RT-qPCR threshold cycle value difference (ΔCT) of HCV replicon RNA synthesis,[2],5.72
same,Inhibition of HCV replicon RNA syntheses at the fixed concentration of 10 μM of the test compound,[2]; HuH-7 clone B,98.08%
same,EC50,[1]; [15],6900 nM
same,EC90,[1]; [15],18000 nM
same,EC90,"[1]; Norwalk virus, GT1, HG23, RNA Hybridization (Replicon), NV GT1, HG23, Example 10",19000 nM
same,EC50,"[1]; Norwalk virus, GT1, HG23, RNA Hybridization (Replicon), NV GT1, HG23, Example 10, unit from Conc. Range",6400 nM
same,Inhibition of cellular ribosomal RNA (rRNA) synthesis at the fixed concentration of 10 μM of the test compound,[3],31.09%
same,CC50,in vitro [4],> 300000 nM
same,CC50,[5],> 30000 nM
"Cc1cn([C@H]2C[C@H](N=[N+]=[N-])[C@@H](CO)O2)c(=O)[nH]c1=O [AZT, 3′-azido-3′-deoxythymidine, reference compound]",CC50,Vero,39500 nM
same,CC50,in vitro [6],56000 nM
same,CC50,PBMC,> 100000 nM
same,CC50,CCRF-CEM,14300 nM
same,CC50,CCRF-CEM; listed as zidovudine (AZT),56100 nM
same,EC50,"HIV-1 strain LAI; Human immunodeficiency virus 1, PBMC, LAI, PBMC, RT 3H-dTTP, read-out: EC50",0.79 nM
same,EC90,"HIV-1 strain LAI; Human immunodeficiency virus 1, in PBMC, read-out: Anti-HIV-1LAI activity EC90",29.9 nM
same,EC50,"HIV-1 strain LAI; in PBMC, listed as zidovudine (AZT), read-out: Anti-HIV-1LAI activity EC50",4.4 ± 3.9 nM
same,CC50,in vitro [7],> 100000 nM
O=c1c2ccccc2n2nnc3ccc(NCCCN4CCN(CCCNc5ccc6nnn7c8ccccc8c(=O)c5c67)CC4)c1c32 [Temacrazine (TMZ)],% VC,HIV-1 LAV; 0.10 nM,96.8%
same,RT Values,HIV-1 LAV; 0.10 nM,30380 cpm and 31745 cpm and 26409 cpm
same,% VC,HIV-1 LAV; 1.00 nM,87.9%
same,RT Values,HIV-1 LAV; 1.00 nM,32770 cpm and 23041 cpm and 24504 cpm
same,% VC,HIV-1 LAV; 3.16 nM,92.4%
same,RT Values,HIV-1 LAV; 3.16 nM,30588 cpm and 25259 cpm and 28648 cpm
same,% VC,HIV-1 LAV; 10.0 nM,99.6%
same,RT Values,HIV-1 LAV; 10.0 nM,27453 cpm and 31623 cpm and 31990 cpm
same,% VC,HIV-1 LAV; 31.6 nM,87.0%
same,RT Values,HIV-1 LAV; 31.6 nM,25515 cpm and 24677 cpm and 29321 cpm
same,% VC,HIV-1 LAV; 100 nM,37.5%
same,% VC,HIV-1 LAV; 316 nM,22.7%
same,RT Values,HIV-1 LAV; 316 nM,6512 cpm and 5272 cpm and 8986 cpm
same,% VC,HIV-1 LAV; 1000 nM,2.0%
same,EC50,HIV-1 LAV; Human immunodeficiency virus 1,70 nM
same,EC90,HIV-1 LAV; Human immunodeficiency virus 1,640 nM
same,IC50,HIV-1 LAV; [16],74.8 nM
same,IC90,HIV-1 LAV; [16],641 nM
same,IC 95%,HIV-1 LAV; OM-10.1,847 nM
same,Selectivity Index (CC50/EC50),"HIV-1 LAV; OM-10.1, Table 7",>0.13
same,% CC,OM-10.1 cells; 0.10 nM,108.4%
same,TOXICITY VALUES (Cell Titer 96),OM-10.1 cells; 0.10 nM,0.727 O.D. @ 490/650 nm and 0.895 O.D. @ 490/650 nm and 0.621 O.D. @ 490/650 nm
same,% CC,OM-10.1 cells; 1.00 nM,109.3%
same,TOXICITY VALUES (Cell Titer 96),OM-10.1 cells; 1.00 nM,0.781 O.D. @ 490/650 nm and 0.744 O.D. @ 490/650 nm and 0.736 O.D. @ 490/650 nm
same,% CC,OM-10.1 cells; 3.16 nM,126.3%
same,TOXICITY VALUES (Cell Titer 96),OM-10.1 cells; 3.16 nM,0.830 O.D. @ 490/650 nm and 0.933 O.D. @ 490/650 nm and 0.849 O.D. @ 490/650 nm
same,% CC,OM-10.1 cells; 10.0 nM,137.0%
same,TOXICITY VALUES (Cell Titer 96),OM-10.1 cells; 10.0 nM,0.882 O.D. @ 490/650 nm and 0.999 O.D. @ 490/650 nm and 0.954 O.D. @ 490/650 nm
same,% CC,OM-10.1 cells; 31.6 nM,138.1%
same,TOXICITY VALUES (Cell Titer 96),OM-10.1 cells; 31.6 nM,0.967 O.D. @ 490/650 nm and 0.902 O.D. @ 490/650 nm and 0.988 O.D. @ 490/650 nm
same,% CC,OM-10.1 cells; 100 nM,138.2%
same,TOXICITY VALUES (Cell Titer 96),OM-10.1 cells; 100 nM,0.917 O.D. @ 490/650 nm and 0.990 O.D. @ 490/650 nm and 0.952 O.D. @ 490/650 nm
same,% CC,OM-10.1 cells; 316 nM,136.7%
same,TOXICITY VALUES (Cell Titer 96),OM-10.1 cells; 316 nM,0.977 O.D. @ 490/650 nm and 1.037 O.D. @ 490/650 nm and 0.813 O.D. @ 490/650 nm
same,% CC,OM-10.1 cells; 1000 nM,129.9%
same,TOXICITY VALUES (Cell Titer 96),OM-10.1 cells; 1000 nM,0.897 O.D. @ 490/650 nm and 0.910 O.D. @ 490/650 nm and 0.879 O.D. @ 490/650 nm
same,TC 90%,OM-10.1 cells; OM-10.1,>1000 nM
same,TC 95%,OM-10.1 cells; OM-10.1,>1000 nM
same,CC50,"OM-10.1 cells; read-out: TC 50%, OM-10.1",> 1000 nM
same,CC50,[8],> 1000 nM
"CC#C[C@]1(O)CC[C@H]2[C@@H]3CCC4=CC(=O)CCC4=C3[C@@H](c3ccc(N(C)C)cc3)C[C@@]21C [mifepristone, reference compound]",value for the cytosolic progesterone receptors (PR),[9],36%
same,embryos lost,[10],~100%
same,"bound to cytosolic GRs, value",cytosolic GRs,193%
same,responding,[11]; glucose intolerant group,60%
same,responding,[11]; hypertensive group,43%
"CCOC(=O)c1ccc(OCCC2CCN(c3ccc(C)nn3)CC2)cc1 [pirodavir, reference compound]",CC50,in vitro [12],> 27 µM and > 10 µg/mL
same,EC50,[13],97 nM
same,EC90,[13],0.23 µg/mL
same,EC50,Poliovirus type 3 WM-3,970 nM
same,EC90,Poliovirus type 3 WM-3,0.14 µg/mL
same,CC50,Vero 76,7.8 µg/mL
